Assay results from patent USRE39591E1, “6-O-substituted ketolides having antibacterial activity” (Abbott Laboratories, priority 1996, dated 2007).

Tested on: up to 32 different microorganisms
Assay: in vitro antibacterial activity (MIC), agar dilution on Brain Heart Infusion (BHI) agar with Steers replicator
Assay type: cell-based
Settings: unit assumed
Procedure, shortened: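 Agar dilution MIC: twelve successive compound dilutions in BHI agar, spot-inoculated with 1:100 (1:10 for slow growers) organism dilutions by Steers replicator, incubated 35-37° C for 20-24 h. MIC is lowest concentration showing no growth, slight haze or sparse colonies versus drug-free control; erythromycin A as class reference.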

CCC1OC(=O)C(C)C(=O)C(C)C(OC2OC(C)CC(N(C)C)C2O)C(C)(OCC=Cc2cn(C)c(=O)n(C)c2=O)CC(C)C(=O)C(C)C2NC(=O)OC12C (stereo not drawn) [Example 293, Compound of Formula (IX): L is CO, T is NH, R is —CH2—CH═CH-(1,3-dimethyl-2,4-dioxo-5-pyrimidinyl)]
MIC (organism code AA): 0.39 µg/mL
MIC (organism code BB): 0.39 µg/mL
MIC (organism code CC): > 100 µg/mL
MIC (organism code DD): 0.39 µg/mL
MIC (organism code EE): 0.39 µg/mL
MIC (organism code FF): 0.39 µg/mL
MIC (organism code GG): > 100 µg/mL
MIC (organism code HH): 0.39 µg/mL
MIC (organism code II): 0.1 µg/mL
MIC (organism code JJ): 0.02 µg/mL
MIC (organism code KK): 0.05 µg/mL
MIC (organism code LL): 0.02 µg/mL
MIC (organism code MM): > 100 µg/mL
MIC (organism code NN): 0.78 µg/mL
MIC (organism code OO): 0.05 µg/mL
MIC (organism code PP): 0.2 µg/mL
MIC (organism code QQ): > 100 µg/mL
MIC (organism code RR): 0.78 µg/mL
MIC (organism code SS): > 100 µg/mL
MIC (organism code TT): > 100 µg/mL
MIC (organism code UU): 12.5 µg/mL
MIC (organism code VV): 0.78 µg/mL
MIC (organism code WW): 16 µg/mL
MIC (organism code XX): 0.03 µg/mL
MIC (organism code YY): 0.03 µg/mL
MIC (organism code ZZ): > 128 µg/mL
MIC (organism code ZZA): 0.5 µg/mL
